Test results from publication PMC8747370, “Characterization of Two BAHD Acetyltransferases Highly Expressed in the Flowers of Jasminum sambac (L.) Aiton” (Plants, 2021).

Assays:
GST-JsBEAT1 = system: T1, GST-JsBEAT1; assay: GC-MS of benzyl acetate formed, curve fit; type: biochemical, Jasminum sambac; settings: 250 mM Tris-HCl pH 7.5, 25 mM MgCl2, 25 mM KCl, 10 mM β-mercaptoethanol, 30 °C, 1 h
T1 construct: tag kept
Excerpt: GC-MS of benzyl acetate formed, curve fit on GST-JsBEAT1

6xHis-JsBEAT2 = system: T2, 6xHis-JsBEAT2; assay: GC-MS of benzyl acetate formed, curve fit; type: biochemical, Jasminum sambac; settings: 250 mM Tris-HCl pH 7.5, 25 mM MgCl2, 25 mM KCl, 10 mM β-mercaptoethanol, 30 °C, 1 h
T2 construct: full-length cDNA, N-terminal 6xHis tag (pQE30), E. coli M15, Ni-NTA purified
Excerpt: GC-MS of benzyl acetate formed, curve fit on 6xHis-JsBEAT2

Km (GST-JsBEAT1; 300 μM benzyl alcohol (fixed))	Km (6xHis-JsBEAT2; with benzyl alcohol (fixed concentration not restated))	Km (GST-JsBEAT1; 300 μM acetyl-CoA (fixed))	Km (6xHis-JsBEAT2; with acetyl-CoA (fixed concentration not restated))	SMILES
546 ± 94.5 µM	317 ± 31.7 µM			CC(=O)SCCNC(=O)CCNC(=O)[C@H](O)C(C)(C)COP(=O)(O)OP(=O)(O)OC[C@H]1O[C@@H](n2cnc3c(N)ncnc32)[C@H](O)[C@@H]1OP(=O)(O)O [acetyl-CoA]
		447 ± 108 µM	279 ± 26.5 µM	OCc1ccccc1 [benzyl alcohol]
